Data set [1] deals with air pouch prostaglandin biosynthesis (Cox-2). Kind of data set: Carrageenan induced air pouch prostaglandin biosynthesis model (CAP). The class given is in vivo, rat. As to conditions: 3 mpk, rat. The protocol: To compare the mean responses of the treatment groups, analysis of variance was applied. Percent inhibition values were determined by comparing the individual treatment mean values to the mean of the control group. Linear regression was used to estimate IC50's/ED50's in appropriate assays.
Carrageenan induced air pouch prostaglandin biosynthesis model (CAP) Air pouches are formed in the backs of male Sprague Dawley rats by injecting 20 mL of sterile air on day 0. Three days later the pouch was reinflated with an additional 10 mL of sterile air. On day 7, 1 mL of saline containing 0.2 % lambda carrageenan (Sigma Chemical Co.) is injected into the pouch to induce the inflammatory reaction that is characterized by the release of prostaglandins. Test compounds are dosed at 0.1 to 10 mg/kg 30 minutes prior to carrageenan. Four hours after the carrageenan injection the pouch is lavaged and levels of prostaglandins are determined by enzyme immuno-assay using commercially available kits. […] Values for Cox-2 inhibition that are parenthetical indicate ED50 values.

Data set [2] has as its target T1, recombinant human Cox-2 (r-hu Cox-2) (Homo sapiens, UniProt P35354).
T1 construct: made in house; host or cells: baculovirus/Sf9 insect cells (microsomes)
T1 sequence (P35354 18-604): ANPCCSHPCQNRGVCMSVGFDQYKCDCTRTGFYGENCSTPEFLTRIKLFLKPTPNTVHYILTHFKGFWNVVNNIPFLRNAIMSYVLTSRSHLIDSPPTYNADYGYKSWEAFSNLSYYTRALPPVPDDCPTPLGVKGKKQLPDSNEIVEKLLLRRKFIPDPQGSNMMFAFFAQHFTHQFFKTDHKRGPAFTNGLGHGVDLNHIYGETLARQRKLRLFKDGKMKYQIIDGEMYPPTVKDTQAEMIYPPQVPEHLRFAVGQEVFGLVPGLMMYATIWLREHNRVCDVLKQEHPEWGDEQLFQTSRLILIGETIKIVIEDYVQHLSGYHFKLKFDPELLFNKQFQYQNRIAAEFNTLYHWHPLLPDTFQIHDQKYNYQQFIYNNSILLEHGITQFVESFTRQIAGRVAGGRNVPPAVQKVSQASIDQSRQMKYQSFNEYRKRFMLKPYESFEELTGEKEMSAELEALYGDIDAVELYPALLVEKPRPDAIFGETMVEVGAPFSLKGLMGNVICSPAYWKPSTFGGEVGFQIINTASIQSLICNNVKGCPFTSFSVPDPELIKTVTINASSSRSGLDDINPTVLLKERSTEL
In words: Recombinant human PGHS-2 enzyme assay (RHUCX2). The class given is biochemical. As to conditions: for IC50: read-out: RHUCX2 IC50 (parenthetical value). The method, boiled down:
(§1)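 PGE2 formed with and without drug quantified by EIA against matrix-matched standards; percent inhibition relative to control mean, IC50 by linear regression.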

For data set [3], the target named is T2, recombinant human Cox-1 (r-hu Cox1) (Homo sapiens, UniProt P23219).
T2 construct: made in house; host or cells: baculovirus/Sf9 insect cells (microsomes)
In words: Recombinant human PGHS-1 enzyme assay (RHUCX1). To be noted: for IC50: read-out: RHUCX1 IC50 (parenthetical value). The class given is biochemical. The method, boiled down: as §1

In data set [4] the target is T3, human amnionic whole cell cyclooxygenase-2 (WISH cells) (Homo sapiens, UniProt P35354).
T3 construct: endogenous in cells; host or cells: human amnionic WISH cells, induced with IL-1beta
T3 sequence (P35354 18-604): T1 sequence (P35354 18-604)
In words: IL-1β induced PGE2 production in WISH cells. To be noted: for IC50: read-out: Wish IC50 (parenthetical value). In kind it is cell-based. An outline of the steps:
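Confluent (80%) WISH cells were stimulated with 5 ng/ml IL-1β in serum-free Neuman-Tytell medium, with or without test compound in DMSO (0.01% v/v). PGE2 in the culture medium was measured by EIA against standards prepared in the same medium, read by optical density.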

For data set [5], the target named is T4, Human Whole Platelet Cyclooxygenase-1 (Homo sapiens, UniProt P23219).
T4 construct: from tissue; host or cells: human blood: isolated platelets (A4) or heparinised whole blood (A9)
In words: Human Whole Platelet Cyclooxygenase-1 assay (HWPX). In kind it is cell-based. To be noted: for IC50: read-out: HWPX IC50 (parenthetical value). Here is the method: Blood from normal healthy volunteers is collected into tubes containing ACD (acid citrate dextrose) as the anticoagulant. This blood is centrifuged at 175×g to prepare platelet rich plasma. The platelet rich plasma is then centrifuged at 100×g to pellet the white blood cells, leaving the platelets in the supernatant. The supernatant is layered on a cushion of 0.7 mL of 10% bovine serum albumin in Tyrodes solution (Gibco; Grand Island, N.Y.) and then centrifuged at 1000×g. The resulting supernatant from this centrifuigation is then removed and 11 mL of Tyrodes solution is added to the remaining pellet of platelets. The platelets are then aliquoted at 120 μl into a 96 well plate. Experimental compounds are added and allowed to pre-incubate for 10 minutes. At the end of this pre-incubation period, the calcium ionophore A23187 is added to a final concentration of 8.8 μM and the incubation is continued for ten minutes. The reaction is stopped by adding cold 6 mM EDTA, the incubation mixture is centrifuged at 220×g, and the supernatants are then analyzed for thromboxane using a commercial kit from Cayman Chemical (Ann Arbor, Mich.

Where [6] appears, read: read-out: RHUCX2 % Inh. at Dose.
The mark [7] stands for this setting: read-out: RHUCX1 % Inh. at Dose.
The mark [8] stands for this setting: read-out: Wish % Inhib. at Dose.
[9] abbreviates: read-out: HWPX % Inhib. at Dose.

T2 sequence (P23219 24-599): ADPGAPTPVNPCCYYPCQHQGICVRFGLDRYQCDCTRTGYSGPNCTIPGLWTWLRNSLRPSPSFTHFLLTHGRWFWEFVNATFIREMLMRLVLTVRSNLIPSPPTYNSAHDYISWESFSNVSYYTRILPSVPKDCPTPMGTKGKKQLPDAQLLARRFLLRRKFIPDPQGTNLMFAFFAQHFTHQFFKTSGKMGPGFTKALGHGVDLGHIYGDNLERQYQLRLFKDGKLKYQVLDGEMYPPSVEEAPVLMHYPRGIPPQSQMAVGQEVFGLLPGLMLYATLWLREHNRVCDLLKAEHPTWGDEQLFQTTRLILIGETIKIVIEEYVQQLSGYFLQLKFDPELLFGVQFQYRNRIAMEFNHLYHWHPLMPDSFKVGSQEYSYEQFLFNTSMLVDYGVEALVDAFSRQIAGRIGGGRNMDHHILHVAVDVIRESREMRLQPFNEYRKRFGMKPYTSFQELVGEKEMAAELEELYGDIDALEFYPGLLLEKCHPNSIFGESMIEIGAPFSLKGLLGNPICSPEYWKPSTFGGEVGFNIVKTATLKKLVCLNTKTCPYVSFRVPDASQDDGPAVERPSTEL
T4 sequence (P23219 24-599): as above

For the compound `C[C@@H](CO)COc1c(-c2ccc(S(N)(=O)=O)cc2)cnn(-c2ccc(F)c(F)c2)c1=O` [Example 464, (S)-2-(3,4-Difluorophenyl)-4-(3-hydroxy-2-methyl-1-propoxy)-5-[4-(aminosulfonyl)phenyl]-3(2H)-pyridazinone], the inhibition in vivo at 3 mg/kg in data set [1] (4 h, read-out: CAP % Inhib. @ 3 mpk) was found to be 70%.

On to `CC(C)(O)COc1c(-c2ccc(S(N)(=O)=O)cc2)cnn(-c2ccc(F)c(F)c2)c1=O` [Example 459], for which, in data set [1], the “CAP % Inhib. @ 3 mpk” value stood at 45%.

Turning to `CS(=O)(=O)c1ccc(-c2cnn(-c3cccc(Cl)c3)c(=O)c2C2CCCCC2)cc1` [Example 368, 2-(3-Chlorophenyl)-4-cyclohexyl-5-[4-(methylsulfonyl)phenyl]-3(2H)-pyridazinone], the melting point lay within 85 to 90 °C. For the same compound, in data set [2] (setting [6]), the inhibition at 0.1 µM was 65% and the inhibition at 1 µM was 96%. Further, the inhibition at 100 µM in data set [3] (setting [7]) is 13%. For the same compound, the inhibition at 0.01 µM in data set [4] (setting [8]) was determined as 33%. Also, in data set [4] (0.03 μM, read-out: Wish % Inhib. at Dose), the inhibition at 0.03 µM stood at 64%. The IC50 in data set [5] was determined as 13700 nM.

Compound `CS(=O)(=O)c1ccc(-c2cnn(-c3cccc(Cl)c3)c(=O)c2OCC2CC2)cc1` [Example 418, 2-(3-Chlorophenyl)-4-cyclopropanemethoxy-5-[4-(methylsulfonyl)phenyl]-3(2H)-pyridazinone] returned a melting point of 158 to 161 °C. Further, the inhibition at 0.025 µM in data set [2] (0.025 μM, read-out: RHUCX2 % Inh. at Dose) was 53%. In data set [2] (setting [6]), the inhibition at 0.1 µM turned out to be 52% and the inhibition at 1 µM came out at 85%. The inhibition at 100 µM in data set [3] (setting [7]) was determined as 33%. For the same compound, the IC50 in data set [4] was determined as 250 nM. Also, the IC50 in data set [5] is 14200 nM.

Turning to `Cc1ccc(-c2c(-c3ccc(S(C)(=O)=O)cc3)cnn(-c3cccc(Cl)c3)c2=O)cc1` [Example 370, 2-(3-Chlorophenyl)-4-(4-methylphenyl)-5-[4-(methylsulfonyl)phenyl]-3(2H)-pyridazinone], the melting point was 222 to 224 °C. Moreover, in data set [2], the IC50 is 48 nM. In data set [3] (setting [7]), the inhibition at 100 µM came to 8%. Besides, the IC50 in data set [4] turned out to be 20 nM. Besides, the IC50 in data set [5] was 8400 nM.

Take `C/C(=C\Cn1ncc(-c2ccc(S(N)(=O)=O)cc2)c(-c2ccc(F)cc2)c1=O)C(F)(F)F` [Example 154]: the melting point fell in the range of 155 to 157 °C. Moreover, the IC50 in data set [2] worked out at 18 nM. Moreover, the IC50 in data set [3] amounted to 126 nM. In data set [4] (setting [8]), the inhibition at 0.01 µM worked out at 69%. The inhibition at 0.1 µM in data set [4] (0.1 μM, read-out: Wish % Inhib. at Dose) is 100%. Besides, the inhibition at 0.1 µM in data set [5] (0.1 μM, read-out: HWPX % Inhib. at Dose) turned out to be 48%. Besides, the inhibition at 0.3 µM in data set [5] (setting [9]) worked out at 81%.

`CC(c1ccc(F)c(F)c1F)n1ncc(-c2ccc(S(N)(=O)=O)cc2)c(-c2ccc(F)cc2)c1=O` (stereo not drawn) [Example 146, 2-(α-Methyl-2,3,4-trifluorobenzyl)-4-(4-fluorophenyl)-5-[4-(aminosulfonyl)phenyl]-3(2H)-pyridazinone] yielded a melting point of 192 to 194 °C. Besides, in data set [2] (setting [6]), the inhibition at 0.1 µM was 73% and the inhibition at 1 µM came to 100%. In addition, the inhibition at 1 µM in data set [3] (1 μM, read-out: RHUCX1 % Inh. at Dose) is 53%. For the same compound, in data set [3] (setting [7]), the inhibition at 10 µM is 82%. In addition, the IC50 in data set [4] was 44 nM. The inhibition at 3 µM in data set [5] (3 μM, read-out: HWPX % Inhib. at Dose) came out at 46%. The inhibition at 10 µM in data set [5] (10 μM, read-out: HWPX % Inhib. at Dose) came out at 84%.

`NS(=O)(=O)c1ccc(-c2cnn(-c3ccc(F)cc3)c(=O)c2-c2ccc(F)cc2)cc1F` [Example 72, 2,4-Bis-(4-fluorophenyl)-5-[3-fluoro-4-(aminosulfonyl)phenyl]-3(2H)-pyridazinone] displayed a melting point of 222 to 224 °C. In data set [2] (setting [6]), the inhibition at 0.1 µM was found to be 18% and the inhibition at 1 µM was 65%. In data set [3] (setting [7]), the inhibition at 100 µM turned out to be 0%. In data set [4], the IC50 was determined as 72 nM. In addition, the IC50 in data set [5] turned out to be 25000 nM.

Take `CC(C)(C)COc1c(-c2ccc(S(N)(=O)=O)c(F)c2)cnn(CC(F)(F)F)c1=O` [Example 381, 2-(2,2,2-Trifluoroethyl)-4-(2,2-dimethylpropoxy)-5-[3-fluoro-4-(aminosulfonyl)phenyl]-3(2H)-pyridazinone]: the melting point lay within 144 to 145 °C. In data set [2], the IC50 is 188 nM. In addition, the inhibition at 100 µM in data set [3] (setting [7]) amounted to 0%. In addition, in data set [4], the IC50 worked out at 75 nM. For the same compound, in data set [5] (30 μM, read-out: HWPX % Inhib. at Dose), the inhibition at 30 µM stood at 31%. Moreover, the inhibition at 100 µM in data set [5] (100 μM, read-out: HWPX % Inhib. at Dose) came out at 91%.

As to `NS(=O)(=O)c1ccc(-c2cnn(-c3ccc(F)c(Cl)c3)c(=O)c2-c2ccc(F)cc2)cc1` [Example 401, 2-(3-Chloro-4-fluorophenyl)-4-(4-fluorophenyl)-5-[4-(aminosulfonyl)phenyl]-3(2H)-pyridazinone], the melting point is 208 to 210 °C. Moreover, the inhibition at 0.01 µM in data set [2] (0.01 μM, read-out: RHUCX2 % Inh. at Dose) worked out at 48%. Also, in data set [2] (setting [6]), the inhibition at 0.1 µM is 62% and the inhibition at 1 µM was determined as 96%. For the same compound, the IC50 in data set [3] came to 753 nM. In addition, the IC50 in data set [4] stood at 17 nM. Besides, the IC50 in data set [5] is 320 nM.

As for `NS(=O)(=O)c1ccc(-c2cnn(CC(F)=C(F)F)c(=O)c2-c2ccc(F)cc2)cc1` [Example 141, 2-(2,3,3-Trifluoro-2-propen-1-yl)-4-(4-fluorophenyl)-5-[4-(aminosulfonyl)phenyl]-3(2H)-pyridazinone], the melting point is 173 to 175 °C. In addition, in data set [2] (setting [6]), the inhibition at 0.1 µM is 95% and the inhibition at 1 µM is 99%. Moreover, in data set [3] (setting [7]), the inhibition at 10 µM amounted to 62% and the inhibition at 100 µM turned out to be 55%. The IC50 in data set [4] was determined as 4 nM. In addition, the inhibition at 0.3 µM in data set [5] (setting [9]) is 56%.

As for `CC(c1cc(F)cc(F)c1)n1ncc(-c2ccc(S(N)(=O)=O)cc2)c(-c2ccc(F)cc2)c1=O` (stereo not drawn) [Example 147, 2-(α-Methyl-3,5-difluorobenzyl)-4-(4-fluorophenyl)-5-[4-(aminosulfonyl)phenyl]-3(2H)-pyridazinone], the melting point was 139 to 141 °C. The inhibition at 0.03 µM in data set [2] (0.03 μM, read-out: RHUCX2 % Inh. at Dose) is 0%. Moreover, in data set [2] (setting [6]), the inhibition at 0.1 µM was determined as 64% and the inhibition at 1 µM turned out to be 100%. Moreover, in data set [3], the IC50 was 67 nM. Besides, the IC50 in data set [4] worked out at 29 nM. The inhibition at 0.3 µM in data set [5] (setting [9]) turned out to be 84%.

`CS(=O)(=O)c1ccc(-c2cnn(-c3ccc(F)cc3)c(=O)c2C2CCCCC2)cc1` [Example 228, 2-(4-Fluorophenyl)-4-cyclohexyl-5-[4-(methylsulfonyl)phenyl]-3(2H)-pyridazinone] displayed a melting point of 231 to 233 °C. Moreover, the IC50 in data set [2] was determined as 209 nM. Moreover, the inhibition at 100 µM in data set [3] (setting [7]) turned out to be 7%. Besides, in data set [4], the IC50 stood at 86 nM. Besides, in data set [5], the half-maximal inhibitory concentration (IC50) was 19600 nM.

The term IC50 denotes the concentration that gives 50% inhibition. One may read the melting point as the temperature of the solid-liquid transition.
